Reference: patent EP0670711B1, “ANTIFUNGAL MOUTHCARE COMPOSITIONS” (AMBI Inc., priority 1992, dated 1994)
≈ marks a conversion by molar mass, not a printed value.

Assays:
Assay type in all cases: cell-based
Strep. mitis = assay: nominal inhibitory concentration (NIC) assay; conditions: Streptococcus mitis, read-out: NIC
Act. odontolyticus = assay: nominal inhibitory concentration (NIC) assay; conditions: Schaalia odontolytica, read-out: NIC
Strep mitior = assay: nominal inhibitory concentration (NIC) assay; conditions: read-out: NIC
Act. actinomycetem = assay: nominal inhibitory concentration (NIC) assay; conditions: read-out: NIC
Bact. ureolyticus = assay: nominal inhibitory concentration (NIC) assay; conditions: read-out: NIC
Act. naeslundii = assay: nominal inhibitory concentration (NIC) assay; conditions: Actinomyces naeslundii, read-out: NIC
G.vaginalis = assay: nominal inhibitory concentration (NIC) assay; conditions: Gardnerella vaginalis, read-out: NIC
Strep. salivarius = assay: nominal inhibitory concentration (NIC) assay; conditions: Streptococcus salivarius, read-out: NIC
Staph.aureus = assay: nominal inhibitory concentration (NIC) assay; conditions: Staphylococcus aureus, read-out: NIC
Bact. intermedius = assay: nominal inhibitory concentration (NIC) assay; conditions: Prevotella intermedia, read-out: NIC
Candida kefyr = assay: nominal inhibitory concentration (NIC) assay; conditions: Kluyveromyces marxianus, read-out: NIC
Peptostrepto. micros = assay: nominal inhibitory concentration (NIC) assay; conditions: read-out: NIC
Strep.pyogenes = assay: nominal inhibitory concentration (NIC) assay; conditions: Streptococcus pyogenes, read-out: NIC
Fuso. nucleatum = assay: nominal inhibitory concentration (NIC) assay; conditions: Fusobacterium nucleatum, read-out: NIC
Porph. gingivalis = assay: nominal inhibitory concentration (NIC) assay; conditions: Porphyromonas gingivalis, read-out: NIC
Candida tropicalis = assay: nominal inhibitory concentration (NIC) assay; conditions: read-out: NIC
Strep. agalactiæ = assay: nominal inhibitory concentration (NIC) assay; conditions: read-out: NIC
W recta NCTC 11489 = assay: zone diffusion assay; conditions: solution with 500ppm of each agent
Excerpt: (§1) The assay was repeated for each of cetyl pyridinium chloride, chlorhexidine or triclosan individually. […]

A actinomyces NCTC 9709 = assay: zone diffusion assay; conditions: solution with 500ppm of each agent
Excerpt: as §1

S sanguis NCTC 10904 = assay: zone diffusion assay; conditions: solution with 500ppm of each agent
Excerpt: as §1

C kefyr NCTC 3106 = assay: zone diffusion assay; conditions: solution with 500ppm of each agent
Excerpt: as §1

C tropicalis NCTC 3114 = assay: zone diffusion assay; conditions: solution with 500ppm of each agent
Excerpt: as §1

F nucleatum NCTC 10562 = assay: zone diffusion assay; conditions: solution with 500ppm of each agent
Excerpt: as §1

C albicans NCTC 3089 = assay: zone diffusion assay; conditions: solution with 500ppm of each agent
Excerpt: as §1

S mutans NCTC 11061 = assay: zone diffusion assay; conditions: solution with 500ppm of each agent
Excerpt: as §1

Strep. sanguis = assay: nominal inhibitory concentration (NIC) assay; conditions: read-out: NIC
Lacto odontolyticus = assay: nominal inhibitory concentration (NIC) assay; conditions: read-out: NIC
Strep. milleri = assay: nominal inhibitory concentration (NIC) assay; conditions: read-out: NIC
Strep.mutans = assay: nominal inhibitory concentration (NIC) assay; conditions: Streptococcus mutans, read-out: NIC
[1] = system: all the organisms shown in the Example 25 Table 1; assay: NIC assay, summary over all organisms of Table 1; conditions: read-out: levels needed to inhibit all the desired oral microrganisms
Candida organisms = assay: NIC assay, summary for Candida
Act. israelii = assay: nominal inhibitory concentration (NIC) assay; conditions: Actinomyces israelii, read-out: NIC
Candida albicans = assay: nominal inhibitory concentration (NIC) assay; conditions: read-out: NIC

SMILES | MIC (Strep. mitis) [µg/mL] | MIC (Act. odontolyticus) [µg/mL] | MIC (Strep mitior) [µg/mL] | MIC (Act. actinomycetem) [µg/mL] | MIC (Bact. ureolyticus) [µg/mL] | MIC (Act. naeslundii) [µg/mL] | MIC (G.vaginalis) [µg/mL] | MIC (Strep. salivarius) [µg/mL] | MIC (Staph.aureus) [µg/mL] | MIC (Bact. intermedius) [µg/mL] | MIC (Candida kefyr) [µg/mL] | MIC (Peptostrepto. micros) [µg/mL] | MIC (Strep.pyogenes) [µg/mL] | MIC (Fuso. nucleatum) [µg/mL] | MIC (Porph. gingivalis) [µg/mL] | MIC (Candida tropicalis) [µg/mL] | MIC (Strep. agalactiæ) [µg/mL] | mean zones (W recta NCTC 11489) [mm] | mean zones (A actinomyces NCTC 9709) [mm] | mean zones (S sanguis NCTC 10904) [mm] | also measured
CCCCCCCCCCCCCCCC[n+]1ccccc1 [CPC, cetyl pyridinium chloride] | 2.23 | 1.23 | 1.22 | 1.02 | 0.56 | 4.61 | 0.3 | 2.36 | 0.66 | 4.68 | 0.61 | 4.96 | 0.78 | 0.82 | 0.94 | 0.48 | 0.78 | 17.15 | 19.41 | 14.44 | mean zones (C kefyr NCTC 3106): 10.43 mm; mean zones (C tropicalis NCTC 3114): 10.39 mm; mean zones (F nucleatum NCTC 10562): 18.99 mm; mean zones (C albicans NCTC 3089): 9.79 mm; mean zones (S mutans NCTC 11061): 17.05 mm; MIC (Strep. sanguis): 2.12 µg/mL; MIC (Lacto odontolyticus): 0.83 µg/mL; MIC (Strep. milleri): 4.58 µg/mL; MIC (Strep.mutans): 3.1 µg/mL
Oc1cc(Cl)ccc1Oc1ccc(Cl)cc1Cl [TCN, triclosan] | 3.94 (≈ 13.6 µM) | 3.02 (≈ 10.4 µM) | 4.23 (≈ 14.6 µM) | 1.69 (≈ 5.84 µM) | 7.65 (≈ 26.4 µM) | 1.98 (≈ 6.84 µM) | 0.41 (≈ 1.42 µM) | 4.05 (≈ 14 µM) | 0.09 (≈ 0.311 µM) | 3.72 (≈ 12.8 µM) | 0.46 (≈ 1.59 µM) | 6.76 (≈ 23.3 µM) | 4.35 (≈ 15 µM) | 1.6 (≈ 5.53 µM) | 4 (≈ 13.8 µM) | 0.35 (≈ 1.21 µM) | 4.96 (≈ 17.1 µM) | 37.20 | 35.92 | 28.97 | MIC [1]: ~7.65 µg/mL (≈ 26.4 µM); MIC (Candida organisms; Candida, read-out: levels for Candida inhibition): ~1 µg/mL (≈ 3.45 µM); inhibitory activity against candida species (Candida organisms; result in words, NIC assay): effective; MIC (Act. israelii): 3.19 µg/mL (≈ 11 µM); mean zones (C kefyr NCTC 3106): 21.99 mm; mean zones (C tropicalis NCTC 3114): 13.66 mm; mean zones (F nucleatum NCTC 10562): 33.98 mm; mean zones (C albicans NCTC 3089): 16.99 mm; mean zones (S mutans NCTC 11061): 32.82 mm; MIC (Strep. sanguis): 0.88 µg/mL (≈ 3.04 µM); MIC (Lacto odontolyticus): 7.49 µg/mL (≈ 25.9 µM); MIC (Strep. milleri): 1.08 µg/mL (≈ 3.73 µM); MIC (Candida albicans): 1 µg/mL (≈ 3.45 µM); MIC (Strep.mutans): 1.11 µg/mL (≈ 3.83 µM)
